According to patent US9718810B2, “Solid state forms of a quinazoline derivative and its use as a BRAF inhibitor” (Ignyta, Inc., priority 2013, dated 2017):
Where two headings read alike, the source gives them in different places.

Tests used:
[1] = Kinetic solubility measurement in pure water; assay type: physicochemical; settings: for pH: pH of the aqueous solubility sample; for Aqueous solubility: pure water, ambient room temperature, 20 minutes, expressed as free base
Protocol: Typically 1-5 mg of samples were diluted to 10 mL with sample solvent (1:1 (v:v) Mobile phase A:Mobile phase B) and the assay concentrations were determined from an average of duplicate injections using the following HPLC method. The purity and impurity analyses are done using conventional HPLC.
The free base and the salts listed in the table below were added in excess (saturation) to water in a 2.0 mL glass vial. The samples were put on an end-to-end rotator (50 rpm) at ambient room temperature up to 20 minutes. After 20 minutes, a sampling was taken for HPLC analysis.

[2] = Gravimetric vapor sorption (GVS); assay type: physicochemical; settings: for hygroscopicity: adsorption and desorption curves overlap; for XRPD after GVS analysis: form change after GVS cycles
Protocol: GVS experiments have been carried out using the DVS-HT instrument (Surface Measurement Systems, London, UK). This instrument measures the uptake and loss of vapor gravimetrically using a recording ultra-microbalance with a mass resolution of ±0.1 μg. The vapor partial pressure (±1.0%) around the sample is controlled by mixing saturated and dry carrier gas streams using electronic mass flow controllers. The desired temperature is maintained at ±0.1° C. The samples (1-10 mg) were placed into the DVSHT and DVS-1 instruments at the desired temperature. The sample was loaded and unloaded at 40% RH and 25° C. (typical room conditions). A moisture sorption isotherm was performed as outlined below (2 scans giving 1 complete cycle). The software uses a least squares minimization procedure together with a model of the mass relaxation, to predict an asymptotic value. The measured mass equilibration value must be within 2% of that predicted by the software before the next % RH value is selected. The minimum equilibration time was set to 1 hour and the maximum to 4 hours.

[3] = Solid-state stress stability at 40° C./75% RH; assay type: physicochemical; settings: for Area Purity / HPLC Assay / XRPD: 40° C./75% RH; for solid state stability: 40° C./75% relative humidity without desiccant
Protocol: Typically 1-5 mg of samples were diluted to 10 mL with sample solvent (1:1 (v:v) Mobile phase A:Mobile phase B) and the assay concentrations were determined from an average of duplicate injections using the following HPLC method. The purity and impurity analyses are done using conventional HPLC. Samples of Compound I free base and its salts (approximately 10 mg each) were stored at 40° C./75% RH in open glass vials (4 cm^3) over four weeks without desiccant. Stress stability studies were performed to get a timely impression of the influence of temperature and humidity on Form stability.

BRAF V600E [4] = molecular target: T1, BRAF V600E (Homo sapiens, UniProt P15056, V600E); experiment: BRAF V600E inhibition in intact cells; assay type: cell-based; settings: in vitro
BRAF V600E [5] = molecular target: T1, BRAF V600E; experiment: BRAF V600E inhibition in isolated systems; assay type: biochemical; settings: in vitro
[6] = Solubility of Form A0 in organic solvents at the boiling point; assay type: physicochemical; settings: for solubility: organic solvent or mixture, thermodynamic from solid, read-out: Solubility Estimate at The Boiling Point
Protocol: The following procedure was used to assess the solubility of the anhydrous free base of Compound I (Form A0) in a range of nine organic solvents listed in Table 3. Using 1.8 mL HPLC vials, approximately 10 mg of Form A0 was stirred at the boiling point in 200 μL of nine different solvents. […] The additions were stopped when the solid dissolved or when 1000 μL had been dispensed. […] Methyl t-butyl ether was chosen as an anti-solvent (<10 mg/mL).

[7] = Methyl-t-butyl Ether, 55.2 ° C.

T1 sequence (P15056 whole entry V600E): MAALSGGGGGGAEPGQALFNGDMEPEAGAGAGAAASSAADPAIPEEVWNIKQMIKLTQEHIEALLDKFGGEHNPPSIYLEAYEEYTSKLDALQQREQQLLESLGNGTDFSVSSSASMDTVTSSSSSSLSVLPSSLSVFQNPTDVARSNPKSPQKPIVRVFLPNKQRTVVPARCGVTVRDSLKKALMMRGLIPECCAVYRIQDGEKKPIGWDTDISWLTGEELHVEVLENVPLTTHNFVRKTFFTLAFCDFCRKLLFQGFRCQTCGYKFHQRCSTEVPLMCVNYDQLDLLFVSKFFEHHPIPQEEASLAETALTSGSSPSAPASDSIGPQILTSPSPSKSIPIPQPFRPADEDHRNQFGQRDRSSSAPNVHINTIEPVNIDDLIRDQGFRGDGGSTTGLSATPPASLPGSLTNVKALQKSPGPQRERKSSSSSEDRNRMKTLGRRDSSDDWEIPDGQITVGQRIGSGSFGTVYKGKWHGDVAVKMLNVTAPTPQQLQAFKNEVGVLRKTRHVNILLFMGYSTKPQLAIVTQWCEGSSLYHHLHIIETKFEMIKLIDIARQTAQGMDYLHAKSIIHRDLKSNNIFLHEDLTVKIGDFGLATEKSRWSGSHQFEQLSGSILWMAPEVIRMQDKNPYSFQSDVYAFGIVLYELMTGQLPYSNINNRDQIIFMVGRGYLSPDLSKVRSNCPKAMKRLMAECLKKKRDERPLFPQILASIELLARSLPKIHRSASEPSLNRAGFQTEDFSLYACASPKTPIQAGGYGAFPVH

SMILES	pH [1]	Aqueous solubility [1] [mg/mL]	amount of moisture adsorbed at 75% RH ([2]; 25° C.)	GVS: Percent increase in mass at 90% RH ([2]; 25° C.) [%]	hygroscopicity [2]	XRPD after GVS analysis [2]	Area Purity ([3]; 0 days) [%]	HPLC Assay ([3]; 0 days) [%]	XRPD ([3]; 0 days)	Area Purity ([3]; 14 days) [%]	HPLC Assay ([3]; 14 days) [%]	XRPD ([3]; 14 days)	Area Purity ([3]; 28 days) [%]	HPLC Assay ([3]; 28 days) [%]	XRPD ([3]; 28 days)	solid state stability ([3]; 28 days)	also measured
COc1cc2ncnc(Oc3cccc(NC(=O)Nc4cc(C(C)(C)C(F)(F)F)on4)c3)c2cc1OC [Bromide A1]	6.6	0.1	less than 0.7%	1.0	not hygroscopic	No change	–	–	–	–	–	–	–	–	–	–	GVS: Percent increase in mass at 90% RH ([2]; 25° C., listed as Bromide Form A1): approximately 1%; XRPD after GVS analysis ([2]; listed as Bromide Form A1): compares nicely to the pattern of the material before GVS
COc1cc2ncnc(Oc3cccc(NC(=O)Nc4cc(C(C)(C)C(F)(F)F)on4)c3)c2cc1OC.Cl [Chloride A1]	7.3	0.56	–	1.7	–	No change	99.5	99.9	Form A1	97.6	98.7	Form A1	96.4	100.4	Form A1	stable for 28 days	dissolution in pure water, ranking of salts ([1]; pure water (pH=7)): best salt for dissolution in pure water; XRPD after GVS analysis ([2]; listed as Chloride Form A1): No form change occurred; Area Purity ([3]; 7 days): 98.7%; HPLC Assay ([3]; 7 days): 98.3%; XRPD ([3]; 7 days): Form A1
COc1cc2ncnc(Oc3cccc(NC(=O)Nc4cc(C(C)(C)C(F)(F)F)on4)c3)c2cc1OC [Compound I, 1-[3-(6,7-dimethoxy-quinazolin-4-yloxy)-phenyl]-3-[5-(2,2,2-trifluoro-1,1-dimethyl-ethyl)-isoxazol-3-yl]-urea]	–	–	–	–	–	–	–	–	–	–	–	–	–	–	–	–	inhibits BRAF V600E (BRAF V600E [4]): low nanomolar concentrations; inhibits BRAF V600E (BRAF V600E [5]): low nanomolar concentrations
COc1cc2ncnc(Oc3cccc(NC(=O)Nc4cc(C(C)(C)C(F)(F)F)on4)c3)c2cc1OC [Form A0]	7.4	–	–	1.3	–	compares nicely to the pattern of the material before GVS	98.3	100.0	Form A0	98.5	100.5	Form A0	98.2	102.4	Form A0	stable for 28 days	Aqueous solubility ([1]; listed as Free base A0): <0.01 mg/mL; Solubility Estimate at The Boiling Point [6, 7]: <10 mg/mL; solubility ([6]; Acetone, 56.5 ° C.): > 50 mg/mL; solubility ([6]; Acetonitrile, 82.0 ° C.): < 20 mg/mL; solubility ([6]; Chloroform, 61.2 ° C.): > 50 mg/mL; solubility ([6]; Dichloromethane, 40.0 ° C.): > 20 mg/mL; solubility ([6]; Ethyl Acetate, 77.1 ° C.): < 30 mg/mL; solubility ([6]; Methanol, 64.7 ° C.): < 20 mg/mL; solubility [6, 7]: < 10 mg/mL; solubility ([6]; Tetrahydrofuran, 66.0 ° C.): > 50 mg/mL; solubility ([6]; Toluene, 110.6 ° C.): < 30 mg/mL; XRPD after GVS analysis ([2]; listed as A0): No change; moisture uptake ([2]; from 40 to about 90% RH): less than 1.3 % (w/w); Area Purity ([3]; 6 days): 98.5%; HPLC Assay ([3]; 6 days): 102.3%; XRPD ([3]; 6 days): Form A0

Second part, led by results:

pH [1]	Aqueous solubility [1] [mg/mL]	amount of moisture adsorbed at 75% RH ([2]; 25° C.)	GVS: Percent increase in mass at 90% RH ([2]; 25° C.) [%]	hygroscopicity [2]	XRPD after GVS analysis [2]	Area Purity ([3]; 0 days) [%]	HPLC Assay ([3]; 0 days) [%]	XRPD ([3]; 0 days)	Area Purity ([3]; 14 days) [%]	HPLC Assay ([3]; 14 days) [%]	XRPD ([3]; 14 days)	Area Purity ([3]; 28 days) [%]	HPLC Assay ([3]; 28 days) [%]	XRPD ([3]; 28 days)	solid state stability ([3]; 28 days)	SMILES	also measured
6.6	0.07	–	–	–	No form change occurred	–	–	–	–	–	–	–	–	–	–	COc1cc2ncnc(Oc3cccc(NC(=O)Nc4cc(C(C)(C)C(F)(F)F)on4)c3)c2cc1OC.O=C(O)CC(=O)O [Malonate A1]	total uptake of water ([2]; RH range of 0-90%, 25° C.): < 4%
6.8	0.09	less than 1.8%	2.7	not hygroscopic	No change	–	–	–	–	–	–	–	–	–	–	COc1cc2ncnc(Oc3cccc(NC(=O)Nc4cc(C(C)(C)C(F)(F)F)on4)c3)c2cc1OC.O=P(O)(O)O [Phosphate A1]	GVS: Percent increase in mass at 90% RH ([2]; 25° C., listed as phosphate Form A1): approximately 2.7%; XRPD after GVS analysis ([2]; listed as phosphate Form A1): compares nicely to the pattern of the material before GVS
